The results in this text go back to patent publication US20190092720A1, “FUNCTIONALIZED BENZAMIDE DERIVATIVES AS ANTIVIRAL AGENTS AGAINST HBV INFECTION” (BARUCH S. BLUMBERG INSTITUTE, priority 2012, published 2019).

Read-outs that look alike come from different tables or passages of the source. Some results are limits rather than exact numbers.

In one data set the test system is HBV capsids. Briefly: Particle gel assay of nucleocapsids in AML12HBV10 cells. The data set is classed as cell-based, Hepatitis B virus (HBV). The note with it: 2 days, FIG. 1 panel B. The protocol:
(§1) FIG. 1. Antiviral mechanism of the compounds of the present invention. AML12HBV10 cells were left untreated (NT) or treated with the indicated concentrations of the compounds of the disclosure Compound 6 and Compound 19, respectively, for 2 days. Bay-4109 (3 µM) or AT-61 (25 µM) served as positive controls. (A) Intracellular viral RNA was determined by Northern blot hybridization. Ribosomal RNA served as a loading control. (B) The total amounts of nucleocapsids were determined by a particle gel assay. (C) Encapsidated pgRNA were extracted and measured by Northern blot. (D) Nucleocapsid-associated HBV DNA was quantified by alkaline-treatment of nucleocapsids on the membrane following the particle gel assay and hybridized with a HBV-specific riboprobe. (E) HBV DNA replication intermediates were extracted and determined by Southern blot hybridizations.
(§2) Procedures of viral capsids and nucleocapsid-associated DNA analysis: AML12HB10 cells were lysed by addition of 300 μl buffer containing 10 mM Tris-HCl (pH7.6), 100 mM NaCl, 1 mM EDTA and 0.1% NP-40 to each well of 12-well plate. Cell debries were removed by centrifugation at 5000 g for 10 minutes. Ten microliters of the clarified cell lysates were fractionated by electrophoresis through nondenaturing 1% agarose gels and transferred to a nitrocellulose filter by blotting with TNE buffer (10 mM Tris-HCl, pH7.6; 150 mM NaCl and 1 mM EDTA). HBV capsids were detected by probing the membrane with an antibody against HBV core protein (DAKO). […] To detect capsid associated HBV DNA, the membrane were treated with buffer containing 0.5N NaOH and 1.5 M NaCl for 5 minutes and followed by neutralization with buffer containing 1 M TRIS-HCl and 1.5M NaCl for 5 minutes. The viral DNA was detected by hybridization with a α-^32P-UTP (800 Ci/mmol, Perkin Elmer) labeled minus strand specific full-length HBV riboprobe (Xu et al.).

Another data set deals with encapsidated pgRNA. Briefly: Encapsidated pgRNA by Northern blot in AML12HBV10 cells. Format: cell-based, Hepatitis B virus (HBV). The settings on record: 2 days, FIG. 1 panel C. Here is the method:
as §1
Determination of encapsidated pgRNA: AML12HBV10 cells were lysed by addition of 600 μl of lysis buffer (50 mM Tris-HCl [pH 7.5], 1 mM EDTA, 150 mM NaCl, 1% NP-40) into each well of 12-well plates. The nuclei were removed by centrifugation at 5,000 g for 10 minutes. One-half of the sample was mixed with 6 U of micrococcal nuclease (Pharmacia) and 15 μl of 100 mM CaCl2 and incubated for 15 minutes at 37° C. to digest free nucleic acids. The reaction was stopped with 6 μl of 0.5 M EDTA, and capsids were precipitated by adding 125 μl of 35% polyethylene glycol 8000 in 1.75 M NaCl to the reaction and incubating in ice for 30 minutes, followed by centrifugation at 6,000 g for 10 minutes at 4° C. Pellets were re-suspended in 50 μl of TNE buffer (10 mM Tris-HCl [pH 8], 100 mM NaCl, 1 mM EDTA). pgRNA was extracted by the addition of 1 ml of Trizol reagent. The encapsidated pgRNA were electrophoresed through a 2.2 M formaldehyde-1% agarose gel, transferred to a nylon membrane, and immobilized by UV cross-linking (Stratagene). Hybridization was performed with an alpha-^32P-UTP labeled riboprobe specific for plus strand of HBV genome.

For data set [1], the system named is capsid-associated HBV DNA. Briefly: Capsid-associated HBV DNA and DNA replication intermediates in AML12HBV10 cells. The data set is classed as cell-based, Hepatitis B virus (HBV). The settings on record: 2 days, FIG. 1 panels D and E. Here is the method:
as §1, §2
To analyze the HBV DNA replication intermediates, cells were lysed by adding into each well of the 12-well plates 0.5 ml of lysis buffer containing 10 mM Tris-HCl (pH 8.0), 1 mM EDTA, 1% NP40 and 2% sucrose and incubating at 37° C. for 10 minutes. Cell debris and nuclei were removed by centrifugation and the supernatant was mixed with 130 μl of 35% polyethylene glycol (PEG) 8000 containing 1.5 M NaCl. After 1 hour incubation in ice, viral nucleocapsids were pelleted by centrifugation at 6,000×g for 5 minutes at 4° C., followed by 1 hour digestion at 37° C. in 400 μl of digestion buffer containing 0.5 mg/ml pronase (Calbiochem), 0.5% SDS, 150 mM NaCl, 25 mM Tris-HCl (pH 8.0) and 10 mM EDTA. The digestion mixture was extracted twice with phenol and DNA was precipitated with ethanol, dissolved in TE buffer (10 mM Tris-HCl, pH 8.0; 0.1 mM EDTA). […]

Data set [2] relates to HBV replication in AML12HBV10 cells. Briefly: Antiviral efficacy in AML12HBV10 cells (HBV DNA dot-blot hybridization). Format: cell-based, Hepatitis B virus (HBV). The protocol: The HBV replication inhibitors of the present invention are capable of treating and preventing diseases associated with HBV infection.
The antiviral efficacy of the compounds of the disclosure, as presented in Table 1, were determined in AML12HBV10 cells. AML12HBV10 is an immortalized murine hepatocyte (AML12)-derived stable cell line that supports robust HBV replication in a tetracycline inducible manner (Xu et al.). The cells were seeded into 96 well plates at a density of 2×10^4 cells per well and cultured in DMEM/F12 media with 10% fetal bovine serum in the absence of tetracycline to allow pgRNA transcription and HBV DNA replication. One day after seeding, cells were left untreated or treated with a serial dilution of testing compounds, ranging from 50 μM to 0.39 μM, for 48 hours. Cells were then lysed by adding into each well of 100 μl lysis buffer containing 10 mM Tris-HCl (pH 7.6), 1 mM EDTA, 100 mM NaCl and 1% NP-40 and incubated at 37° C. for 30 minutes. Half amount (50 μl) of cell lysate from each well was combined with equal volume of denaturing solution containing 0.5N NaOH and 1.5M NaCl. After 5 minute incubation, 100 µl of neutralization solution (1M Tris-HCl, pH 7.4, 1.5M NaCl) was added into each well. The denatured cell lysates (totally 200 μl) were applied onto Nylon membrane using 96-well dot-blot manifold (Biorad). HBV DNA in the cell lysates were determined by dot-blot hybridization with alpha-^32P-UTP-labelled riboprobe specific for HBV minus strand DNA. The antiviral efficacy of a compound of the disclosure was expressed as the concentration that reduces the amount of HBV DNA by 50% (EC50).

In the next data set the test system is AML12HBV10 cells. In words: Cytotoxicity in AML12HBV10 cells (MTT assay). The settings on record: concentration that reduces viability by 50%, 48 hours, serial dilution 50 μM to 0.39 μM. The data set is classed as cell-based, murine. The protocol:
(§3) Determination of cytotoxicity of compounds of the disclosure in AML12HBV10 cells: To determine the cytotoxicity of the compounds, AML12HBV10 cells were seeded into 96-well plates at a density of 2×10^4 cells per well and cultured in DMEM/F12 media with 10% fetal bovine serum in the absence of tetracycline to allow pgRNA transcription and HBV DNA replication. One day after seeding, cells were left untreated or treated with a serial dilution of testing compounds, ranging from 50 μM to 0.39 μM, for 48 hours. The cell viability was measured by a MTT assay, following procedure provided by the manufacturer (Promega). The cytotoxicity of a compound was expressed as the concentration of compound that reduces the viability of the cells by 50% (CC50).

For data set [3], the system named is HBV replication in HepDES19 cells. Briefly: Antiviral activity in HepDES19 cells (core-associated HBV DNA, Southern blot). The data set is classed as cell-based, Hepatitis B virus (HBV). The settings on record: concentration that reduces core-associated HBV DNA by 50%; 6 days; serial dilution 10 μM to 0.018 μM. The text has this: Determination of antiviral activity of compounds of the disclosure, as presented in Table 1, in human hepatoma-derived cell lines: To further confirm the antiviral activity of the compounds of the disclosure against HBV in human hepatocyte-derived cells, HepDES19 cells, a human hepatoma cell line supporting HBV replication in a tetracycline inducible manner (Guo et al., 2007), seeded into 12-well plates at a density of 5×10^5 cells per well and cultured in DMEM/F12 media with 10% fetal bovine serum and 1 μg/ml tetracycline. Two days after seeding, the cells were mock-treated or treated with a serial dilution of compounds of the disclosure, ranging from 10 μM to 0.018 μM, for 6 days in the absence of tetracycline. Upon the completion of treatment, cells were lysed by adding into each well of the 12-well plates 0.5 ml of lysis buffer containing 10 mM Tris-HCl (pH 8.0), 1 mM EDTA, 1% NP40 and 2% sucrose and incubating at 37° C. for 10 minutes. Cell debris and nuclei were removed by centrifugation and the supernatant was mixed with 130 μl of 35% polyethylene glycol (PEG) 8000 containing 1.5 M NaCl. After 1 hour incubation in ice, viral nucleocapsids were pelleted by centrifugation at 6,000×g for 5 min at 4° C., followed by 1 hour digestion at 37° C. in 400 μl of digestion buffer containing 0.5 mg/ml pronase (Calbiochem), 0.5% SDS, 150 mM NaCl, 25 mM Tris-HCl (pH 8.0) and 10 mM EDTA. The digestion mixture was extracted twice with phenol and DNA was precipitated with ethanol, dissolved in TE buffer (10 mM Tris-HCl, pH 8.0; 0.1 mM EDTA). One half of the DNA sample from each well was resolved by electrophoresis into a 1.5% agarose gel. The gel was then subjected to denaturation in a solution containing 0.5 M NaOH and 1.5 M NaCl, followed by neutralization in a buffer containing 1 M Tris-HCl (pH7.4) and 1.5 M NaCl. DNA was then blotted onto Hybond-XL membrane (GE Health care) in 20×SSC buffer. The amounts of cytoplasmic HBV core-associated HBV DNA were determined by Southern blot hybridization and the antiviral efficacy of a compound was expressed as its concentration that reduce the amount of HBV DNA by 50% (EC50) or 90% (EC90).

Data set [4] can be described thus: Cytotoxicity in AML12HBV10 cells (MTT assay). Format: cell-based, murine. The settings on record: mouse, concentration that reduces viability by 50%, serial dilution 50 μM to 0.39 μM. The protocol: as §3
The next data set deals with HBV mRNA. In words: Intracellular viral RNA by Northern blot in AML12HBV10 cells. The data set is classed as cell-based, Hepatitis B virus (HBV). The settings on record: 2 days, FIG. 1 panel A. Here is the method:
as §1
Procedure for analysis of HBV mRNA: Upon the completion of treatment, total cellular RNA was extracted with TRIzol reagents (Invitrogen). Five micrograms of total RNA was resolved in 1.5% agarose gel containing 2.2 M formadelhyde and transferred onto Hybond-XL membrane in 20×SSC buffer. The amounts of HBV mRNA were determined by Northern blot hybridization with an alpha-^32P-UTP labeled riboprobe specific for plus strand of HBV genome.

With `O=C(N/C(C(=O)N1CCCCC1)=C(/Cl)c1ccccc1)c1ccccc1` [AT-61, reference compound], the capsid formation result in the data set with HBV capsids is “did not affect”. The “level of encapsidated pgRNA” value in the data set on encapsidated pgRNA is “dose-dependently reduced”. In data set [1], the “capsid-associated HBV DNA / DNA synthesis” value was “dose-dependently reduced”.

In the case of `COC(=O)C1=C(C)NC(c2ncc(F)cc2F)=N[C@H]1c1ccc(F)cc1Cl` [Bay41-4109, reference compound], in the data set with HBV capsids, the capsid formation result is “completely abolished”. Further, the “level of encapsidated pgRNA” value with encapsidated pgRNA is reported as “completely abolished”. In addition, in data set [1], the “capsid-associated HBV DNA / DNA synthesis” value is recorded as “completely abolished”.

For the compound `O=C(Nc1ccccc1)c1scc2c1OCCO2` [Entry 10], the EC50 in data set [2] (read-out: AML12HBV10 EC50, concentration that reduces the amount of HBV DNA by 50%, 48 hours, serial dilution 50 μM to 0.39 μM) came to 4.48 µM; in data set [3] it was 8.45 µM. The same compound came in with a 50% cytotoxic concentration (CC50) with AML12HBV10 cells above 50 µM.

For `O=C(Nc1cccc(Cl)c1)c1cccc2c1OCCO2` [Entry 19], the EC50 in data set [2] (Hepatitis B virus, AML12HBV10, 48 h, read-out: AML12HBV10 EC50, concentration that reduces the amount of HBV DNA by 50%, serial dilution 50 μM to 0.39 μM) was below 0.4 µM. Also, the CC50 at 48 h in data set [4] is above 50 µM. Besides, the “amount of viral mRNA” value in the data set with HBV mRNA is “did not affect”. The capsid formation result with HBV capsids was “did not significantly affect”. Besides, in the data set with encapsidated pgRNA, the “level of encapsidated pgRNA” value is recorded as “dose-dependently reduced”. In addition, the “capsid-associated HBV DNA / DNA synthesis” value in data set [1] was “reduced encapsidated pgRNA and capsid-associated HBV DNA in a dose-dependent manner”.
